Experiments:
[1] = target: T1, human m3 muscarinic receptor (Homo sapiens, UniProt P20309); assay: Affinity for human muscarinic receptors ([3H]-NMS binding, CHO cell membranes); conditions: qualitative statement
T1 construct: expressed in transfected cells; host or cells: CHO (Chinese Hamster Ovarian) cells, crude membrane fraction
Procedure: Chinese Hamster Ovarian cells (CHO) expressing the human recombinant m1, m2, m3, m4 and m5 receptors were cultured in Ham's F12 media supplemented with 100 IU/ml of penicillin, 100 μg/ml of streptomycin, 400 μg/ml of geneticin and 5% of fetal bovine serum. Cell cultures were maintained in a humidified incubator at 37° C. and 5% CO2.
Confluent CHO cells expressing human m1, m2, m3, m4 and m5 muscarinic receptors were harvested and resuspended in phosphate buffered saline without calcium and magnesium. The cell suspension was centrifuged at 1500×g for 3 min (4° C.). The cell pellet was homogenized in a 15 mM Tris-HCl (pH 7.5) buffer containing 2 mM MgCl2, 0.3 mM EDTA and 1 mM EGTA. The crude membrane fraction was collected by two consecutive centrifugation steps at 40,000×g for 25 min (4° C.). The final pellet was resuspended, at a protein concentration ranging from 2 to 6 mg/ml, in a 7.5 mM Tris-HCl (pH 7.5) buffer containing 12.5 mM MgCl2, 0.3 mM EDTA, 1 mM EGTA and 250 mM sucrose and stored in liquid nitrogen.
Binding assays were performed according to procedure described in: Buckley N. J., Bonner T. I., Buckley C. M., Brann M. R., Mol. Pharmacol. (1989), 35, 469-476, but with slight modifications.
Briefly, 25 to 50 μg of membrane proteins were incubated at room temperature in 1 ml of a 50 mM Tris-HCl (pH 7.4) buffer containing 2 mM of MgCl2, 0.1 nM of [^3H]-NMS (N-methylscopolamine, 85 Ci/mmol, from Apbiotech, UK) and increasing concentrations of test compound dissolved in DMSO (1% final concentration). Non specific binding was measured in the presence of 1 μM atropine. After 60 (m2) or 120 (m3) min. incubation, assays were stopped by rapid vacuum filtration of the samples through glass fiber filters (Filtermat A, Wallac, Belgium) presoaked in 0.3% polyethyleneimine for at least 2 h. Samples were further rinsed with 8 ml of ice-cold 50 mM Tris-HCl (pH 7.4) buffer. Radioactivity trapped onto the filter was counted in a Betaplate counter (Wallac). Competition binding curves were analyzed by non-linear regression with XLfit software (UDBS, UK).

PDE IV = PDE IV enzymatic activity (SPA phosphodiesterase assay, cytosolic fraction from U937 cells); assay type: biochemical; conditions: qualitative statement
Procedure: Cytosolic fraction from U937 cells pre-stimulated for 4 h at 37° C. with a mixture of rolipram 30 μM and salbutamol 1 μM (Torphy T. J., Zhou H. L., Cieslinski L. B., J. Pharmacol. Exp. Ther. (1992), 263 (3), 1195-1205).
Assays were performed in 100 μL of 50 mM Tris HCl buffer (pH 7.4) containing 5 mM MgCl2, 2 mM EGTA, 20 nM of [^3H]-cAMP (40-60 Ci/mmol), the cytosolic fraction of 50,000 U937 cells and the appropriate concentration of test compound (usually 10 μM) dissolved in DMSO (final assay concentration not exceeding 1%). After 30 min incubation at room temperature, 0.5 mg of SPA yttrium silicate beads are added to each sample. Radioactivity bound to the beads (5′-AMP) is determined by liquid scintillation. Non PDE IV activity and/or non specific binding of the labeled substrate to the SPA beads is defined as the residual radioactivity remaining in the presence of rolipram 32 μM (non PDE IV activity represents about 40% of total activity). PDE IV activity is determined by subtracting the non PDE TV activity from the total activity.

T1 sequence (P20309 whole entry): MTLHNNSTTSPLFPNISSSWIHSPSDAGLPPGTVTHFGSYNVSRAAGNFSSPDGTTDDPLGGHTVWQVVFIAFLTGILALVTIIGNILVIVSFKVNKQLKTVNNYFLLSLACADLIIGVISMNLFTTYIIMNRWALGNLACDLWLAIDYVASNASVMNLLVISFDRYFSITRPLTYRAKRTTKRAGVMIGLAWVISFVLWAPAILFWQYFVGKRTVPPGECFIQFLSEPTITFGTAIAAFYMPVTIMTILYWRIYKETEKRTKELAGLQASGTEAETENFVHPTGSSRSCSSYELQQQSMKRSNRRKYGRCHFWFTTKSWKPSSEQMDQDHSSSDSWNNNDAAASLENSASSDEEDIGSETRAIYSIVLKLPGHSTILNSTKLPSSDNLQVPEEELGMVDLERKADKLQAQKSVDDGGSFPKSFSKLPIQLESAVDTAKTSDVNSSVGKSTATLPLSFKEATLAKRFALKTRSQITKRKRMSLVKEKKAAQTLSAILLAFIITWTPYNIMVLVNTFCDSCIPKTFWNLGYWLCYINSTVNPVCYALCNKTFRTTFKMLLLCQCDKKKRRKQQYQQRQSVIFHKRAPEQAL

Dual high affinities: m3 receptor part [1] | Compound | Dual high affinities: PDE IV part (PDE IV)
high affinities | Cc1c(NC2CC2)nc(C2CC2C)nc1N1CCCCCC1 (racemic) [Compound 65, 6-(1-azepanyl)-N-cyclopropyl-5-methyl-2-(2-methylcyclopropyl)-4-pyrimidinamine] | high affinities
high affinities | Cc1c(NC2CC2)nc(C2CC2C)nc1N1CCC(C)CC1 (racemic) [Compound 98, N-cyclopropyl-5-methyl-2-(2-methylcyclopropyl)-6-(4-methyl-1-piperidinyl)-4-pyrimidinamine] | high affinities
high affinities | Cc1c(NC2CC2)nc(C2CC2)nc1N1CCCCC1C (racemic) [Compound 177, N,2-dicyclopropyl-5-methyl-6-(2-methyl-1-piperidinyl)-4-pyrimidinamine] | high affinities
high affinities | Cc1c(NC2CC2)nc(C2CC2C)nc1N1CCCCCC1 (single isomer, unassigned) [Compound 67, 6-(1-azepanyl)-N-cyclopropyl-5-methyl-2-(2-methylcyclopropyl)-4-pyrimidinamine] | high affinities
high affinities | CC1CC1c1nc(NC2CCCCC2)cc(NC2CC2)n1 (single isomer, unassigned) [Compound 144, N^4-cyclohexyl-N^6-cyclopropyl-2-(2-methylcyclopropyl)-4,6-pyrimidinediamine] | high affinities
high affinities | Cc1c(NC2CC2)nc(C2CCC2)nc1N1CCCCCC1 [Compound 55, 6-(1-azepanyl)-2-cyclobutyl-N-cyclopropyl-5-methyl-4-pyrimidinamine] | high affinities
high affinities | Cc1c(NC2CC2)nc(C2CC2)nc1N1CCCCCC1 [Compound 56, 6-(1-azepanyl)-N,2-dicyclopropyl-5-methyl-4-pyrimidinamine] | high affinities
high affinities | Clc1c(NC2CC2)nc(C2CC2)nc1N1CCCCCC1 [Compound 59, 6-(1-azepanyl)-5-chloro-N,2-dicyclopropyl-4-pyrimidinamine] | high affinities
high affinities | Fc1c(NC2CC2)nc(C2CC2)nc1N1CCCCCC1 [Compound 60, 6-(1-azepanyl)-N,2-dicyclopropyl-5-fluoro-4-pyrimidinamine] | high affinities
high affinities | Brc1c(NC2CC2)nc(C2CC2)nc1N1CCCCCC1 [Compound 61, 6-azepan-1-yl-5-bromo-N,2-dicyclopropyl-4-pyrimidinamine] | high affinities
high affinities | c1c(NC2CC2)nc(C2CC2)nc1N1CCCCCC1 [Compound 62, 6-(1-azepanyl)-N,2-dicyclopropyl-4-pyrimidinamine] | high affinities
high affinities | Nc1c(NC2CC2)nc(C2CC2)nc1N1CCCCCC1 [Compound 63, 6-(1-azepanyl)-N^4,2-dicyclopropyl-4,5-pyrimidinediamine] | high affinities
high affinities | Cc1c(NC2CC2)nc(C(C)C)nc1N1CCCCCC1 [Compound 64, 6-(1-azepanyl)-N-cyclopropyl-2-isopropyl-5-methyl-4-pyrimidinamine] | high affinities
high affinities | Cc1c(NC2CC2)nc(C2CC2)nc1N1CCCCCCC1 [Compound 72, 6-(1-azocanyl)-N,2-dicyclopropyl-5-methyl-4-pyrimidinamine] | high affinities
high affinities | Cc1c(NC2CC2)nc(C2CC2)nc1N1CCC(C(F)(F)F)CC1 [Compound 77, N,2-dicyclopropyl-5-methyl-6-[4-(trifluoromethyl)piperidin-1-yl]-4-pyrimidinamine] | high affinities
high affinities | Cc1c(NC2CC2)nc(C2CC2)nc1N1CCC(F)(F)CC1 [Compound 78, N,2-dicyclopropyl-6-(4,4-difluoro-1-piperidinyl)-5-methyl-4-pyrimidinamine] | high affinities
high affinities | Cc1c(NC2CC2)nc(C2CC2)nc1N1CCC(C)(C)CC1 [Compound 79, N,2-dicyclopropyl-6-(4,4-dimethyl-1-piperidinyl)-5-methyl-4-pyrimidinamine] | high affinities
high affinities | CCC1CCN(c2nc(C3CC3)nc(NC3CC3)c2C)CC1 [Compound 86, N,2-dicyclopropyl-6-(4-ethyl-1-piperidinyl)-5-methyl-4-pyrimidinamine] | high affinities
high affinities | CCc1c(NC2CC2)nc(C2CC2)nc1N1CCC(C)CC1 [Compound 94, N,2-dicyclopropyl-5-ethyl-6-(4-methyl-1-piperidinyl)-4-pyrimidinamine] | high affinities
high affinities | Cc1c(NC2CC2)nc(C2CC2)nc1N1CCC(C)CC1 [Compound 95, N,2-dicyclopropyl-5-methyl-6-(4-methyl-1-piperidinyl)-4-pyrimidinamine] | high affinities
high affinities | C=C1CCN(c2nc(C3CC3)nc(NC3CC3)c2C)CC1 [Compound 106, N,2-dicyclopropyl-5-methyl-6-(4-methylene-1-piperidinyl)-4-pyrimidinamine] | high affinities
high affinities | Cc1c(NC2CC2)nc(C2CC2)nc1N1CC=CCC1 [Compound 112, N,2-dicyclopropyl-6-(3,6-dihydro-1(2H)-pyridinyl)-5-methyl-4-pyrimidinamine] | high affinities
high affinities | Cc1c(NC2CC2)nc(C2CC2)nc1N1CC2CCC(C2)C1 [Compound 115, 6-(3-azabicyclo[3.2.1]oct-3-yl)-N,2-dicyclopropyl-5-methyl-4-pyrimidinamine] | high affinities
high affinities | CCc1c(NC2CC2)nc(C2CC2)nc1N1CCSCC1 [Compound 118, N,2-dicyclopropyl-5-ethyl-6-(4-thiomorpholinyl)-4-pyrimidinamine (1:1)] | high affinities
high affinities | Cc1c(NC2CC2)nc(C2CC2)nc1N1CCSCC1 [Compound 119, N,2-dicyclopropyl-5-methyl-6-(4-thiomorpholinyl)-4-pyrimidinamine] | high affinities
high affinities | Cc1c(NCc2c(F)cccc2F)nc(C2CC2)nc1NC1CC1 [Compound 132, N^4,2-dicyclopropyl-N^6-(2,6-difluorobenzyl)-5-methyl-4,6-pyrimidinediamine] | high affinities

— patent publication US7544675B2, “Chemical compounds with dual activity, processes for their preparation and pharmaceutical compositions” (UCB, S.A., priority 2002, dated 2009)
